Tests used:
[1] = target: PIM1 (human) (UniProt P11309); conditions: compound 10.0 µM
[2] = target: PRKAA2 (human) (UniProt P54646); conditions: compound 10.0 µM
[3] = test system: PRKACA (mouse); conditions: compound 10.0 µM; accession and sequence are those of the human protein
[4] = target: AKT1 (human) (UniProt P31749); conditions: compound 10.0 µM
[5] = target: PRKAA1 (human) (UniProt Q13131); conditions: compound 10.0 µM
[6] = target: FGFR1 (human) (UniProt P11362); conditions: compound 10.0 µM
FGFR1 (human), sequence (P11362 whole entry, looked up): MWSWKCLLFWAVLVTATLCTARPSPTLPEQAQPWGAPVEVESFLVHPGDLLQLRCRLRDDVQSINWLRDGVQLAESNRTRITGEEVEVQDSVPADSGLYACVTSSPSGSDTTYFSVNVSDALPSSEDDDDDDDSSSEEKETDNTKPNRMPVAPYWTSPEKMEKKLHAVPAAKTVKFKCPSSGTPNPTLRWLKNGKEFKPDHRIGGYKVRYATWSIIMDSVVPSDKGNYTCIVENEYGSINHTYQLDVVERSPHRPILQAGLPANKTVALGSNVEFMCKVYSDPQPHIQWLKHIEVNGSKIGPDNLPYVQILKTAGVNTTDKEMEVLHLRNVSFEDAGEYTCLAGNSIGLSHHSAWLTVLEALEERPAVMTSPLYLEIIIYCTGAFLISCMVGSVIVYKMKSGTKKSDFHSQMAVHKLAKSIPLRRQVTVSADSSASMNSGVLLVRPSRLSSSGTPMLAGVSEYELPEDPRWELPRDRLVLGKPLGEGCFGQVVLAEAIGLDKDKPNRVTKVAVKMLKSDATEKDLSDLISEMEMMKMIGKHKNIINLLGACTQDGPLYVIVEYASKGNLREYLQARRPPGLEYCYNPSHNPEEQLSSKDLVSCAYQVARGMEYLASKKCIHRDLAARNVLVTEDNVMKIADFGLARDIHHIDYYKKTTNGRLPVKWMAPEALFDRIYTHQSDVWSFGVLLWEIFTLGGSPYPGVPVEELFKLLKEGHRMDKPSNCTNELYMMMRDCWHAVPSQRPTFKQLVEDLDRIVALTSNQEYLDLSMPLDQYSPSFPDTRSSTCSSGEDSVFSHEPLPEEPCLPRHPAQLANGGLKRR

PRKAA2 (human), sequence (P54646 whole entry, looked up): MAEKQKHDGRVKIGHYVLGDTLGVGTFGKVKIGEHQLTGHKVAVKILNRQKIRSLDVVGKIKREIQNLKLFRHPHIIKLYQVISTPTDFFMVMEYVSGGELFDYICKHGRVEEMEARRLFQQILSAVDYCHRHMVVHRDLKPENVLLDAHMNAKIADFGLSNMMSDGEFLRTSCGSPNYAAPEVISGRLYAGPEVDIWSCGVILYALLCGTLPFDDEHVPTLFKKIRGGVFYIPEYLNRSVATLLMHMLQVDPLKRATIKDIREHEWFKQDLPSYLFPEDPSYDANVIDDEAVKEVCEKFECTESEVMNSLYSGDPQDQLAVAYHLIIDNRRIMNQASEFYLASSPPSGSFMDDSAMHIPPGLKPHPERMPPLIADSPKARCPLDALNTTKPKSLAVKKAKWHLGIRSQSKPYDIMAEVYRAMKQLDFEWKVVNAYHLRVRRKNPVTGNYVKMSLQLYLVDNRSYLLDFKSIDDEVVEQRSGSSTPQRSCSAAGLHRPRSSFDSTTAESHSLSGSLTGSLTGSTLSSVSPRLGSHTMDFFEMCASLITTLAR
PRKAA1 (human), sequence (Q13131 whole entry, looked up): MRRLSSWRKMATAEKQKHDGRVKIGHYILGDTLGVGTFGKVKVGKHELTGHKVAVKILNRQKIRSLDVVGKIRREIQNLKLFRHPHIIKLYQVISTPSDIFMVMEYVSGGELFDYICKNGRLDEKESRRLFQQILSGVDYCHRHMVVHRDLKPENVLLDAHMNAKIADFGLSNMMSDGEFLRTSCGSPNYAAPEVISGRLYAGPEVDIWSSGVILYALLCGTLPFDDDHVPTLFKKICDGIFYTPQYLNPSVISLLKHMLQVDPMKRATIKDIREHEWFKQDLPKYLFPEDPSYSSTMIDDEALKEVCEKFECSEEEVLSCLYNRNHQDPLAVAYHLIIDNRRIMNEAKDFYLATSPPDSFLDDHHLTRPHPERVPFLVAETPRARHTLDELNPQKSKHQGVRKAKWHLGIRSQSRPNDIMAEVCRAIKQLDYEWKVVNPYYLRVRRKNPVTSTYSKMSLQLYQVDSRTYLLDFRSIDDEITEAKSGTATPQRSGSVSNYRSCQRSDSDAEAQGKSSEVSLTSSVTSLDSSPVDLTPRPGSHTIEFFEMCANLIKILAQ
AKT1 (human), sequence (P31749 whole entry, looked up): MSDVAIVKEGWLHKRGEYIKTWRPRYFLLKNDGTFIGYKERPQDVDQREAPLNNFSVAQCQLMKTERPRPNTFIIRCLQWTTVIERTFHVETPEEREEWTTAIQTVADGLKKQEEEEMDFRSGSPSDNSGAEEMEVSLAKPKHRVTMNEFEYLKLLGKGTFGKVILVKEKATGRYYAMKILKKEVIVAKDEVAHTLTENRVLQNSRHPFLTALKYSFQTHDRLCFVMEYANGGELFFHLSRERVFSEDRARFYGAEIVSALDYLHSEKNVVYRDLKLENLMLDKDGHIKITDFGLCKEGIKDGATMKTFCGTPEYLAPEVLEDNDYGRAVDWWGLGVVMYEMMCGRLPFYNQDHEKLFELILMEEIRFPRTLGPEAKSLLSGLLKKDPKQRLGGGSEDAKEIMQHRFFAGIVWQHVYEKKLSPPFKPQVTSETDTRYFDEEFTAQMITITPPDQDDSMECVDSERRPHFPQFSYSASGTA
PIM1 (human), sequence (P11309 whole entry, looked up): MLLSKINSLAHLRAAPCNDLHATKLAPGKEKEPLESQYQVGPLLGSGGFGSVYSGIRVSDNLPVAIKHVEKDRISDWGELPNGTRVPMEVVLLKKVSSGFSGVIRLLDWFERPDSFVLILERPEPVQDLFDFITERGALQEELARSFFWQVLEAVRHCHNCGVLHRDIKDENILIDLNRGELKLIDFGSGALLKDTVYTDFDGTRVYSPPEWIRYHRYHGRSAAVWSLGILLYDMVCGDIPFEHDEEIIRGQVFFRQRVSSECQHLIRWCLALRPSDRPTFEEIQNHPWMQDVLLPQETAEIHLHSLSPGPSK

SMILES | inhibition [1] | inhibition [2] | inhibition [3] | inhibition [4] | inhibition [5] | inhibition [6]
COc1cc(CC2C(=O)OC[C@@H]2Cc2ccc(OC)c(OC)c2)ccc1O (some centres not stated) | 0% | 2% | 0% | 0% | 0% | 0%
N#C/C(=C(/N)Sc1ccc(N)cc1)c1ccccc1C(F)(F)F | 5% | 0% | 2% | 0% | 0% | 0%
NC(=O)c1sc(-c2ccsc2)cc1N | 0% | 0% | 0% | 0% | 1% | 0%
Cc1cc(I)ccc1Nc1c(C(=O)NOCC2CC2)cc(F)c(F)c1F | 0% | 0% | 0% | 0% | 0% | 3%
COc1cc2nccc(Oc3ccc(NC(=O)Nc4ccc(F)cc4F)c(F)c3)c2cc1OC | 12% | 0% | 16% | 6% | 0% | 68%
NC(=O)c1ccc(-c2nc(-c3ccccn3)c(-c3ccc4c(c3)OCCO4)[nH]2)cc1 | 2% | 4% | 0% | 2% | 0% | 0%
N#C/C(=C\c1ccc(O)c(O)c1)C(N)=S | 30% | 0% | 4% | 0% | 0% | 11%
O=C1Nc2cc(Br)ccc2/C1=C1/Nc2ccccc2/C1=N\O | 0% | 6% | 2% | 0% | 7% | 10%
COc1cc2ncn(-c3cc(OCc4ccccc4C(F)(F)F)c(C(N)=O)s3)c2cc1OC | 31% | 7% | 14% | 12% | 7% | 57%
Brc1c(Br)c(Br)c2[nH]nnc2c1Br | 0% | 0% | 0% | 0% | 0% | 4%
CS(=O)c1ccc(-c2nc(-c3ccc(F)cc3)c(-c3ccncc3)[nH]2)cc1 (configuration not stated) | 3% | 1% | 0% | 11% | 0% | 11%

Further lines, results first:

inhibition [1] | inhibition [2] | inhibition [3] | inhibition [4] | inhibition [5] | inhibition [6] | SMILES
1% | 0% | 1% | 0% | 1% | 9% | CN(C)c1ccc(/C=C2\C(=O)Nc3ccccc32)cc1
9% | 0% | 0% | 0% | 0% | 1% | O=C1c2ccccc2-c2n[nH]c3cccc1c23
44% | 0% | 6% | 0% | 0% | 3% | CN1CCC(Nc2ncc3ncnc(Nc4ccc(F)c(Cl)c4)c3n2)CC1
31% | 0% | 3% | 2% | 0% | 1% | O=S(=O)(c1cccc2c(Cl)cccc12)N1CCCNCC1
96% | 23% | 62% | 62% | 25% | 31% | Cn1cc(C2=C(c3cn(CCCSC(=N)N)c4ccccc34)C(=O)NC2=O)c2ccccc21
0% | 4% | 7% | 27% | 16% | 11% | NC1N[N](=Cc2coc3ccccc3c2=O)->[Cu]([Cl])([Cl])[SH]=1
